These results are taken from patent US7488825B2 (Kabushiki Kaisha Yakult Honsha, priority 2003, dated 2009).

Data set [1] can be described thus: Solubility measurement in preparation solution (water solubility). The format is physicochemical. The following applies: hydrochloride; for water solubility: pH3.5; for dissolution amount: preparation solution (D-sorbitol, lactic acid, pH about 3.5), shaken at 22° C. for 30 minutes. Here is the method:
About 0.5 g of b- or c-type crystals were weighed out, suspended in a preparation solution, and shaken at 22° C. for 30 minutes (130 r/min). The mixture was filtered by a membrane filter (0.45 μm). To 1 ml of the filtrate, the preparation solution was added up to 200 mL. 10 μl was aliquoted and analyzed by liquid chromatography. The dissolution amount was obtained on the basis of a calibration curve previously prepared.
Note that the preparation solution used herein was prepared by dissolving 45 g of D-sorbitol in an appropriate amount of distilled water for injection, adding 900 mg of lactic acid, adjusting pH of the solution at about 3.5, and adding distilled water for injection up to 1000 mL.

Data set [2] in a line: Change of dissolution state over time (30 mg/mL in preparation solution). The format is physicochemical. The following applies: shaken for several minutes.

The structures appear in SMILES notation. Where a name gives a salt, the structure may show the parent alone.

In data set [1], `CCc1c2c(nc3ccc(OC(=O)N4CCC(N5CCCCC5)CC4)cc13)-c1cc3c(c(=O)n1C2)COC(=O)[C@]3(O)CC` [b-type crystals, irinotecan hydrochloride] registered a water solubility of 11.4 mg/mL and a dissolution amount of 11.4 mg/mL. In addition, the “temperature needed to dissolve” value in data set [2] is “about 70 °C”.
`CCc1c2c(nc3ccc(OC(=O)N4CCC(N5CCCCC5)CC4)cc13)-c1cc3c(c(=O)n1C2)COC(=O)[C@]3(O)CC` [No. 3, irinotecan hydrochloride] showed a dissolution amount in data set [1] not below 100 mg/mL.
For `CCc1c2c(nc3ccc(OC(=O)N4CCC(N5CCCCC5)CC4)cc13)-c1cc3c(c(=O)n1C2)COC(=O)[C@]3(O)CC` [c-type crystals, irinotecan hydrochloride], the water solubility in data set [1] is not below 100 mg/mL.
